Data reported in the supplement of paper PMC11208160.

Test: recombinant barcode read abundance after kanamycin selection (control-corrected) (log10(CPM+1)); higher = more efficient recombination; sequences stand for … in AGTGCAGAGAAAATCGGCCAGTTTTCTCTGCCTGCAGTCCGCATGCCGT…AGATTTATGCAGCGGACTGCCTTTCTCCCAAAGTGATAAACCGGACAGTATCATGGACCGGTTTTCCCGGTAATCCGTATTTGCAAGGTTGGTTTCACT; site = the 11-nt target
How it was run: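 Recombination efficiency draws on barcodes counted at recombinant junctions in a pooled E. coli screen of targets paired with IS621 bridge RNA target-binding loops. The counts were converted to counts per million, averaged and corrected against the chloramphenicol/ampicillin LB agar control, then reported as log10(CPM+1). Selection plates held chloramphenicol/ampicillin/kanamycin with 0.1 mM IPTG, with two replicates per condition.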
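Also: IS621 recombinase and bridge RNA in Escherichia coli cells.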

Row | Sequence | recombinant barcode read abundance (log10)
1 | CGTCTGCCTTGGGTTCTAACCTGTTGCCT (site GGTCTGCCTAG) | 0.0804
2 | CGTCTGCCTTGGGTTCTAACCTGTTGCCT (site TGTCTGCCTAG) | 0.193
3 | CGTGACCCTTGGGTTCTAACCTGTTGCGG (site CGTGACCCTCC) | 2.34
4 | CGTGACCCTTGGGTTCTAACCTGTTGCGG (site GTGAGAACTTG) | 0.072
5 | CGTGCAGCTTGGGTTCTAACCTGTTGCCT (site CGAGCAGCTAG) | 0.508
6 | CGTGCAGCTTGGGTTCTAACCTGTTGCCT (site CGCGCAGCTAG) | 0.137
7 | CGTGCAGCTTGGGTTCTAACCTGTTGCCT (site CGGGCAGCTAG) | 0.0626
8 | CGTGCAGCTTGGGTTCTAACCTGTTGCCT (site CGTGCAGCTAG) | 0.323
9 | CGTGCGCCTTGGGTTCTAACCTGTTGCCT (site AAACTAGCTCC) | 0.0967
10 | CGTGCGCCTTGGGTTCTAACCTGTTGCCT (site CGTGCGCCTAG) | 0.174
11 | CGTGGTCCTTGGGTTCTAACCTGTTGCGT (site CGTGGTCCTAA) | 0.615
12 | CGTGGTCCTTGGGTTCTAACCTGTTGCGT (site CGTGGTCCTAC) | 2.26
13 | CGTGGTCCTTGGGTTCTAACCTGTTGCGT (site CGTGGTCCTAG) | 0.224
14 | CGTGGTCCTTGGGTTCTAACCTGTTGCGT (site CGTGGTCCTAT) | 1.25
15 | CGTGGTCCTTGGGTTCTAACCTGTTGCTT (site CGTGGTCCTAA) | 0.919
16 | CGTGGTCCTTGGGTTCTAACCTGTTGCTT (site CGTGGTCCTAC) | 0.409
17 | CGTGGTCCTTGGGTTCTAACCTGTTGCTT (site CGTGGTCCTAG) | 0.342
18 | CGTGGTCCTTGGGTTCTAACCTGTTGCTT (site CGTGGTCCTAT) | 0.426
19 | CGTTCCACTTGGGTTCTAACCTGTTGCCT (site CGTTCAACTAG) | 0.0139
20 | CGTTCCACTTGGGTTCTAACCTGTTGCCT (site CGTTCCACTAG) | 0.0687
21 | CGTTCCACTTGGGTTCTAACCTGTTGCCT (site CGTTCGACTAG) | 0.279
22 | CGTTCCACTTGGGTTCTAACCTGTTGCCT (site CGTTCTACTAG) | 0

Row | Sequence | recombinant barcode read abundance (log10)
23 | CTAAACCCTTGGGTTCTAACCTGTTGCGT (site CTAAACCCTAC) | 2.85
24 | CTAAACCCTTGGGTTCTAACCTGTTGCGT (site CTACACCCTTC) | 0.0729
25 | CTAAATCCTTGGGTTCTAACCTGTTGCCT (site ATAAATCCTAG) | 0.111
26 | CTAAATCCTTGGGTTCTAACCTGTTGCCT (site CTAAATCCTAG) | 0.303
27 | CTAAATCCTTGGGTTCTAACCTGTTGCCT (site GTAAATCCTAG) | 0.0932
28 | CTAAATCCTTGGGTTCTAACCTGTTGCCT (site TTAAATCCTAG) | 0.0182
29 | CTAACCGCTTGGGTTCTAACCTGTTGCCT (site CAAACCGCTAG) | 0.471
30 | CTAACCGCTTGGGTTCTAACCTGTTGCCT (site CCAACCGCTAG) | 0.266
31 | CTAACCGCTTGGGTTCTAACCTGTTGCCT (site CGAACCGCTAG) | 0.0568
32 | CTAACCGCTTGGGTTCTAACCTGTTGCCT (site CTAACCGCTAG) | 1.67
33 | CTAACCTCTTGGGTTCTAACCTGTTGCTT (site CTAACCTCTAA) | 0.505
34 | CTAACCTCTTGGGTTCTAACCTGTTGCTT (site CTAACCTCTCA) | 0.149
35 | CTAACCTCTTGGGTTCTAACCTGTTGCTT (site CTAACCTCTGA) | 0.178
36 | CTAACCTCTTGGGTTCTAACCTGTTGCTT (site CTAACCTCTTA) | 0
37 | CTAAGAACTTGGGTTCTAACCTGTTGCAT (site CTAAGAACTAA) | 0.15
38 | CTAAGAACTTGGGTTCTAACCTGTTGCAT (site CTAAGAACTAC) | 0.0166
39 | CTAAGAACTTGGGTTCTAACCTGTTGCAT (site CTAAGAACTAG) | 0.188
40 | CTAAGAACTTGGGTTCTAACCTGTTGCAT (site CTAAGAACTAT) | 1.1
41 | CTAAGAGCTTGGGTTCTAACCTGTTGCCA (site CTAAGAGCTTG) | 0.483
42 | CTAAGAGCTTGGGTTCTAACCTGTTGCCA (site CTAAGCGCTTG) | 0.109
43 | CTAAGAGCTTGGGTTCTAACCTGTTGCCA (site CTAAGGGCTTG) | 0.0357
44 | CTAAGAGCTTGGGTTCTAACCTGTTGCCA (site CTAAGTGCTTG) | 0.116

Row | Sequence | recombinant barcode read abundance (log10)
45 | CTAAGCACTTGGGTTCTAACCTGTTGCCG (site CTAAATACTCG) | 0.849
46 | CTAAGCACTTGGGTTCTAACCTGTTGCCG (site CTAAGCACTCG) | 0.671
47 | CTAAGGACTTGGGTTCTAACCTGTTGCTT (site CTAAGGACTAA) | 0.0753
48 | CTAAGGACTTGGGTTCTAACCTGTTGCTT (site CTAAGGGCTCA) | 0.124
49 | CTAAGGGCTTGGGTTCTAACCTGTTGCCA (site CTAAGAGCTTG) | 0.122
50 | CTAAGGGCTTGGGTTCTAACCTGTTGCCA (site CTAAGCGCTTG) | 0.0306
51 | CTAAGGGCTTGGGTTCTAACCTGTTGCCA (site CTAAGGGCTTG) | 0.591
52 | CTAAGGGCTTGGGTTCTAACCTGTTGCCA (site CTAAGTGCTTG) | 0.233
53 | CTAAGGGCTTGGGTTCTAACCTGTTGCGG (site CTAAGGGCTCC) | 1.94
54 | CTAAGGGCTTGGGTTCTAACCTGTTGCGG (site CTTAGGGCTCC) | 0.303
55 | CTAAGTTCTTGGGTTCTAACCTGTTGCGT (site CTAAGTTCTAC) | 1.77
56 | CTAAGTTCTTGGGTTCTAACCTGTTGCGT (site CTACGTACTAC) | 0.0986
57 | CTAATAGCTTGGGTTCTAACCTGTTGCCT (site CTAATAGCTAG) | 0.901
58 | CTAATAGCTTGGGTTCTAACCTGTTGCCT (site CTAATGGCTAG) | 0.0554
59 | CTAATAGCTTGGGTTCTAACCTGTTGCTA (site CTAATAGCTTA) | 0.162
60 | CTAATAGCTTGGGTTCTAACCTGTTGCTA (site CTAATATCTTA) | 0.438
61 | CTAATATCTTGGGTTCTAACCTGTTGCTA (site CTAATAGCTTA) | 0.0341
62 | CTAATATCTTGGGTTCTAACCTGTTGCTA (site CTAATATCTTA) | 0.512
63 | CTAATTGCTTGGGTTCTAACCTGTTGCCT (site CCAATTGCTAG) | 0.201
64 | CTAATTGCTTGGGTTCTAACCTGTTGCCT (site CTAATTGCTAG) | 0.336
65 | CTACAACCTTGGGTTCTAACCTGTTGCTT (site CTACAACCTAA) | 1.28
66 | CTACAACCTTGGGTTCTAACCTGTTGCTT (site CTACACCCTAA) | 0.0399

Row | Sequence | recombinant barcode read abundance (log10)
67 | CTACAACCTTGGGTTCTAACCTGTTGCTT (site CTACAGCCTAA) | 0.109
68 | CTACAACCTTGGGTTCTAACCTGTTGCTT (site CTACATCCTAA) | 0
69 | CTACCCTCTTGGGTTCTAACCTGTTGCCT (site CTACCCTCTAG) | 2.4
70 | CTACCCTCTTGGGTTCTAACCTGTTGCCT (site TCTAAGACTGC) | 0.122
71 | CTACGCACTTGGGTTCTAACCTGTTGCTG (site CTACGAACTCA) | 0
72 | CTACGCACTTGGGTTCTAACCTGTTGCTG (site CTACGCACTCA) | 1.68
73 | CTACGCACTTGGGTTCTAACCTGTTGCTG (site CTACGGACTCA) | 0.112
74 | CTACGCACTTGGGTTCTAACCTGTTGCTG (site CTACGTACTCA) | 0.156
75 | CTACGCTCTTGGGTTCTAACCTGTTGCAC (site CTACGATCTGT) | 0.145
76 | CTACGCTCTTGGGTTCTAACCTGTTGCAC (site CTACGCTCTGT) | 1.78
77 | CTACGCTCTTGGGTTCTAACCTGTTGCAC (site CTACGGTCTGT) | 0.0577
78 | CTACGCTCTTGGGTTCTAACCTGTTGCAC (site CTACGTTCTGT) | 0.0706
79 | CTACGTACTTGGGTTCTAACCTGTTGCGT (site CTAAGTTCTAC) | 0.0986
80 | CTACGTACTTGGGTTCTAACCTGTTGCGT (site CTACGTACTAC) | 0.051
81 | CTACGTCCTTGGGTTCTAACCTGTTGCTA (site CTACGTCCTAA) | 0.0386
82 | CTACGTCCTTGGGTTCTAACCTGTTGCTA (site CTACGTCCTCA) | 0.0856
83 | CTACGTCCTTGGGTTCTAACCTGTTGCTA (site CTACGTCCTGA) | 0.425
84 | CTACGTCCTTGGGTTCTAACCTGTTGCTA (site CTACGTCCTTA) | 0.795
85 | CTACTAACTTGGGTTCTAACCTGTTGCGT (site CTACTAACTAA) | 0.13
86 | CTACTAACTTGGGTTCTAACCTGTTGCGT (site CTACTAACTAC) | 1.07
